The text below walks through data of publication PMC2837466 (Journal of chromatography. B, Analytical technologies in …, 2010).

For this test, the target named is human serum albumin (HSA) (Homo sapiens, UniProt P02768). The test is described as follows: high-performance affinity chromatography, frontal analysis. Type of test: binding.
Sequence of human serum albumin (HSA) (P02768 25-609): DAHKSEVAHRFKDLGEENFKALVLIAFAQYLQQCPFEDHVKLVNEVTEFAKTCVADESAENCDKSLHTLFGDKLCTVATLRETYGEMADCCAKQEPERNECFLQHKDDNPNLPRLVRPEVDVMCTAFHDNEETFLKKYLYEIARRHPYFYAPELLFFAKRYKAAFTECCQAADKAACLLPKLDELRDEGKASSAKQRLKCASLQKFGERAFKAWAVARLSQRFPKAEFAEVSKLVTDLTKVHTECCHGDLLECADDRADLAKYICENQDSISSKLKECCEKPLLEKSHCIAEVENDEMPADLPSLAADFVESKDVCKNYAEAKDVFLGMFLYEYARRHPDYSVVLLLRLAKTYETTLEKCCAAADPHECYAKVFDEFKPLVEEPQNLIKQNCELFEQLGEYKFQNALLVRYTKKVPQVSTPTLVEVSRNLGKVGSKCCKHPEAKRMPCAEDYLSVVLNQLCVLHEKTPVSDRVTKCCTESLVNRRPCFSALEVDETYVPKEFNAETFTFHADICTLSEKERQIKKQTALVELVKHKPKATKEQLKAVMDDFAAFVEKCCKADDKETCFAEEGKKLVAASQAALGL

By Kd is commonly meant the equilibrium constant for the complex coming apart. A low value points to tighter binding. Turning to `CCN(CC)CC(=O)Nc1c(C)cccc1C` [lidocaine], the Kd was 21.3 µM.
